From patent US9744164B2, “Neuroprotective polyphenol analogs” (Salk Institute for Biological Studies, priority 2011, dated 2017)

Legend:
HT22 cells = assay: in vitro ischemia assay (HT22 cell IAA assay); format: cell-based, mouse; settings: for increase in survival: 20 μM IAA, over the neuroprotective concentration range; for improvement of neuroprotective activity/potency over Fisetin: relative to Fisetin, in vitro ischemia
Experimental: For these studies, cultured HT22 mouse hippocampal cells were used as an in vitro stroke assay. HT22 cells were treated with iodoacetic acid (IAA), an irreversible inhibitor of glyceraldehyde 3-phosphate dehydrogenase (G3PDH) for 2 hr alone or in the presence of varying concentrations of Fisetin. G3PDH is an enzyme of the glycolysis pathway, which catalyzes the synthesis of 1,3-bisphosphoglycerate, a “high energy” intermediate used for the synthesis of ATP. Cell survival was measured using a standard colorimetric MTT (3-(4,5-dimethylthiazol-2-yl)-2,5-diphenyltetrazolium bromide) assay for cell survival MTT is a pale yellow substrate that is cleaved by living cells to yield a dark blue formazan product.
Cytotoxicity assay. Cell viability was determined by a modified version of 3-(4,5-dimethylthiazol-2-yl)-2,5-diphenyl tetrazolium bromide (MTT) assay based on the standard procedure (Maher, et al., Brain Research. (2007), supra). Cells were seeded onto 96-well microtiter plates at a density of 5×10^3 cells per well. For the in vitro ischemia assay, the next day, the medium was replaced with DMEM supplemented with 7.5% DFCS and the cells were treated with 20 μM iodoacetic acid (IAA) alone or in the presence of the different derivatives. After 2 hr the medium in each well was aspirated and replaced with fresh medium without IAA but containing the derivatives. 20 hr later, the medium in each well was aspirated and replaced with fresh medium containing 2.5 μg/ml MTT. After 4 hr of incubation at 37° C., the cells were solubilized with 100 μl of a solution containing 50% dimethylformamide and 20% SDS (pH 4.7). The absorbance at 570 nm was measured on the following day with a microplate reader (Molecular Devices). Results were confirmed by visual inspection of the wells. Controls included compound alone to test for toxicity and compound with no cells to test for interference with the assay chemistry.
For a primary screen, an in vitro ischemia model in combination with the HT22 nerve cell line (Maher, et al., Brain Research. (2007) 1173, 117-125) was chosen. […] To induce ischemia in the HT22 cells we used iodoacetic acid (IAA), a well-known, irreversible inhibitor of the glycolytic enzyme glyceraldehyde 3-phosphate dehydrogenase (G3PDH) (Winkler, et al., Exp. Eye Res. (2003) 76, 715-723). IAA has been used in a number of other studies to induce ischemia in nerve cells (Reshef, et al., Neurosci. Lett. (1997) 238, 37-40; Sperling, et al., Neursci. Lett. (2003) 351, 137-140; Rego, et al., Neurochem. Res. (1999) 24, 351-358; Sigalov, et al,. J. Mol. Neurosci. (2000) 15, 147-154; and Reiner, et al., Neurosci. Lett. (1990) 119, 175-178), including several recent screens for neuroprotective molecules (Biraboneye, et al., J. Med. Chem. (2009) 52 (14), 4358-4369; Biraboneye, et al., Chem. Med. Chem. (2010) 5 (1), 79-85). The changes following IAA treatment of neural cells are very similar to those seen in animal models of ischemic stroke (Lipton, et al., Physiol. Rev. (1999) 79, 1431-1568) and include alterations in membrane potential (Reiner, et al., Neurosci. Lett. (1990) 119, 175-178), breakdown of phospholipids (Taylor, et al., J. Pharmacol. Exp. Ther. (1996) 276, 1224-1231), loss of ATP (Winkler, et al., Exp. Eye Res. (2003) 76, 715-723; Sperling, et al., Neursci. Lett. (2003) 351, 137-140) and an increase in reactive oxygen species (ROS) (Taylor, et al., J. Pharmacol. Exp. Ther. (1996), supra; and Sperling, et al., Neursci. Lett. (2003) 351, 137-140).
The roles of the four different hydroxyl groups in the activity of Fisetin were studied. […] Cell viability was determined after 24 hr by the MTT assay. The ability to maintain GSH (GSH) was determined by treating HT22 cells with different doses of each derivative (1-10 μM) in the presence of 5 mM glutamate. After 24 hr cell extracts were prepared and analyzed for total GSH. Fisetin (10 μM) was used as a positive control. […]

Nrf2 = Nrf2 induction, SDS-PAGE and Western blotting of nuclear extracts; format: cell-based; settings: cells treated 1, 2 and 4 hr at most protective concentration
Experimental: SDS-PAGE and immunoblotting. For immunoblotting of Nrf2, nuclear extracts were prepared as described (Schreiber, et al., Nucleic Acids Res. (1989) 17 (15), 6419) from untreated cells and cells treated with the Fisetin derivatives for 1, 2 and 4 hr. Fisetin was used as a positive control. […] Protein concentrations were determined using the BCA protein assay (Pierce). Equal amounts of protein were solubilized in 2.5× SDS-sample buffer, separated on 10% SDS-polyacrylamide gels and transferred to nitrocellulose. Equal loading and transfer of the samples was confirmed by staining the nitrocellulose with Ponceau-S. Transfers were blocked for 1 hr at room temperature with 5% nonfat milk in TBS/0.1% Tween 20 and then incubated overnight at 4° C. in the primary antibody diluted in 5% BSA in TBS/0.05% Tween 20. The primary antibodies used were: anti-Nrf2 (#SC13032; 1/1000) from Santa Cruz Biotechnology (Santa Cruz, Calif.) and anti-β-actin (#5125; 1/20,000) from Cell Signaling (Beverly, Mass.). The transfers were rinsed with TB S/0.05% Tween 20 and incubated for 1 hr at room temperature in horseradish peroxidase-goat anti-rabbit or goat anti-mouse (Biorad, Hercules, Calif.) diluted 1/5000 in 5% nonfat milk in TBS/0.1% Tween 20. The immunoblots were developed with the Super Signal reagent (Pierce, Rockford, Ill.).
The transcription factor Nrf2 plays a key role in regulating GSH metabolism in many different cell types (Lewerenz, et al., Antioxidant & Redox Signaling. (2011) 14, 1449-1465). We have shown that Fisetin can induce Nrf2 and this correlates with its ability to enhance GSH levels (Maher, P. et al., Genes. Nutr. (2009) Sep. 10). To determine if the derivatives which can maintain GSH levels do so by increasing Nrf2 we looked at Nrf2 levels in the nuclei of derivative-treated cells using Fisetin as a positive control (Table 4). […] This was particularly true for the derivatives based on the quinoline scaffold where none of them increased Nrf2 despite being very effective at maintaining GSH levels.
The ability of the derivatives that maintain GSH levels to induce the transcription factor Nrf2 was assayed by SDS-PAGE and Western blotting of nuclear extracts of untreated and derivative-treated cells. Fisetin treatment was used as a positive control.

SMILES | increase in survival (HT22 cells; HT22 cells) | improvement of neuroprotective activity/potency over Fisetin (HT22 cells) | Nrf2 (induction of transcription factor Nrf2) (Nrf2) | improvement of neuroprotective activity relative to CMS-007 (HT22 cells) | EC50 in vitro ischemia (HT22 cells; HT22 cells, 20 μM IAA 2 hr, viability by MTT after 24 hr, 'no' = no protection)
O=c1cc(-c2ccccc2)oc2cc(O)c(O)c(O)c12 [Baicalein, 5,6,7-trihydroxyflavone] | greater than 80% |  |  |  | 
O=c1c(O)c(-c2ccc(O)c(O)c2)oc2ccccc12 [CMS-04P, reference compound] |  | ~6 fold | Yes |  | 
COc1cc(-c2ccc(O)c(O)c2)nc2ccccc12 [CMS-007, 4-methoxy-2-(3,4-dihydroxyphenyl)quinoline] |  | ~75 fold | No |  | 
CCOc1cc(-c2ccc(O)c(O)c2)nc2ccccc12 [CMS-023, 4-ethoxy-2-(3,4-dihydroxyphenyl)quinoline] |  | ~140 fold | No | ~2 fold | 
CC(C)Oc1cc(-c2ccc(O)c(O)c2)nc2ccccc12 [CMS-024, 4-isopropoxy-2-(3,4-dihydroxyphenyl)quinoline] |  |  | No | ~2 fold | 
COc1ccc(/C=C/C(=O)c2cc(C)c(C)cc2O)cc1OCc1ccccc1 [CMS-086, (E)-3-(3-(benzyloxy)-4-methoxyphenyl)-1-(2-hydroxy-4,5-dimethylphenyl)prop-2-en-1-one] |  |  | Yes |  | no
Oc1ccc(-c2cc(OC3CCCC3)c3ccccc3n2)cc1O [CMS-121, 4-cyclopentyloxy-2-(3,4-dihydroxyphenyl)quinoline] |  | > 400 fold | No |  | 
O=c1c(O)c(-c2ccc(N3CCCC3)c(O)c2)oc2c1ccc1ccccc12 [CMS-140, 3-hydroxy-2-(3-hydroxy-4-(pyrrolidin-1-yl)phenyl)-4H-benzo[h]chromen-4-one] |  | up to 600 fold | No |  | 
O=c1c(O)c(-c2ccc(O)c(O)c2)oc2cc(O)ccc12 [Fisetin, 3,7,3′,4′-tetrahydroxy flavone] | greater than 85% |  | Yes |  | 
